In ChEMBL document CHEMBL5728508, “Inhibitors of lysine specific demethylase-1” (2021):

Target: Lysine-specific histone demethylase 1A (Homo sapiens, UniProt O60341)
Experiment: In Vitro Enzyme Inhibition Assay: The enzymatic assay of LSD1 activity is based on Time Resolved-Fluorescence Resonance Energy Transfer (TR-FRET) detection. […] Plates were read by EnVision Multilabel Reader in TR-FRET mode (excitation at 320 nm, emission at 615 nm and 665 nm) after 1 hour incubation at room temperature.

`CCn1c(-c2ccc(OC)cc2)c(-c2ccc(C#N)c(F)c2)cc(N2CCC(N)CC2)c1=O` was tested, and the IC50 was < 100 nM.
